According to the NIST ThermoML archive (doi:10.1021/je060389r):
Numbers after ± are expanded uncertainties.

Legend:
[1] = xn = mol fraction of the nth substance listed; conditions: 298.15 K, 101 kPa, Liquid; for viscosity: Capillary tube (Ostwald / Ubbelohde) method; for speed of sound: Linear variable-path acoustic interferometer; for mass density: Pycnometric method
[2] = 298.15 K, 101 kPa, Liquid; for viscosity: Capillary tube (Ostwald / Ubbelohde) method; for speed of sound: Linear variable-path acoustic interferometer; for mass density: Pycnometric method

CC(C)CO [2-methyl-1-propanol] + CCCCCCCCCC
[1]
Conditions	mass density [kg/m3]	speed of sound [m/s]	viscosity [mPa·s]
x1 = 0.0728	728.1 ± 0.4	1228.7 ± 9.9	0.848 ± 0.013
x1 = 0.1021	729 ± 0.4	1226.6 ± 9.9	0.859 ± 0.013
x1 = 0.2032	732.6 ± 0.4	1219.9 ± 9.9	0.89 ± 0.013
x1 = 0.2976	736.4 ± 0.4	1215.2 ± 9.8	0.934 ± 0.014
x1 = 0.3547	739 ± 0.4	1212.2 ± 9.8	0.976 ± 0.014
x1 = 0.4171	742.1 ± 0.4	1209.4 ± 9.8	1.023 ± 0.014
x1 = 0.5016	747 ± 0.4	1206.1 ± 9.8	1.119 ± 0.014
x1 = 0.6084	754.2 ± 0.4	1201.8 ± 9.7	1.297 ± 0.015
x1 = 0.6575	758 ± 0.4	1200.2 ± 9.7	1.415 ± 0.016
x1 = 0.7027	761.9 ± 0.4	1198.4 ± 9.7	1.543 ± 0.016
x1 = 0.8004	771.6 ± 0.4	1195.1 ± 9.7	1.942 ± 0.018
x1 = 0.8952	782.9 ± 0.4	1192.9 ± 9.6	2.503 ± 0.022
x1 = 0.9497	790.5 ± 0.4	1192 ± 9.6	2.928 ± 0.025
x1 = 0.9848	795.8 ± 0.4	1191.8 ± 9.6	3.249 ± 0.028
x1 = 1	798.2 ± 0.4	1191.3 ± 9.6	3.404 ± 0.029

CCCCCCCCCC [decane]
[2]
Conditions	mass density [kg/m3]	speed of sound [m/s]	viscosity [mPa·s]
–	725.9 ± 0.4	1235.4 ± 10	0.845 ± 0.013

CCCCCCCCCC [decane] + CC(C)CO
[1], x2 = 0
Conditions	mass density [kg/m3]	speed of sound [m/s]	viscosity [mPa·s]
–	725.9 ± 0.4	1235.4 ± 10	0.845 ± 0.013

CCCCCC [hexane]
[2]
Conditions	mass density [kg/m3]	speed of sound [m/s]	viscosity [mPa·s]
–	654.9 ± 0.4	1078.5 ± 8.7	0.313 ± 0.012

CCCCCC [hexane] + CC(C)CO
[1], x2 = 0
Conditions	mass density [kg/m3]	speed of sound [m/s]	viscosity [mPa·s]
–	654.9 ± 0.4	1078.5 ± 8.7	0.313 ± 0.012

CCCCCCCC [octane]
[2]
Conditions	mass density [kg/m3]	speed of sound [m/s]	viscosity [mPa·s]
–	698.6 ± 0.4	1170.9 ± 9.5	0.518 ± 0.013

CCCCCCCC [octane] + CC(C)CO
[1], x2 = 0
Conditions	mass density [kg/m3]	speed of sound [m/s]	viscosity [mPa·s]
–	698.6 ± 0.4	1170.9 ± 9.5	0.518 ± 0.013
